Experimental data from PubChem BioAssay AID1963428 (Molecular Pharmacology Branch, DTP, NCI, 2024).
pIC50: −log10 of the molar value. Several values for one entry are separate records, joined by “and”; a condition that tells them apart may be missing. Equal entries are not always repeated.

Test system: 171881-019-R-J1-PDC complex spheroid growth, % test/control
Experiment: Anticancer human tumor 171881-019-R-J1-PDC patient-derived invasive breast carcinoma cell line growth inhibition [Asc]
Settings: for viability, T/C: stronger effect = lower value
Method in brief: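 Tumor cells were grown as multicellular spheroids with stromal HUVEC and mesenchymal stem cells and treated singly or in combination. Concentrations fell in half-log steps from the clinical Cmax, or from 10 microM where none was known.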

[1] = curve of first compound, second compound 0.01 µM
[2] = curve of first compound, second compound 0.0316 µM
[3] = curve of first compound, second compound 0.1 µM
[4] = curve of first compound, second compound 0.316 µM
[5] = curve of first compound, second compound 1 µM
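For viability, T/C in this document: spheroids exposed to compounds for 7 days.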

Cn1ncnc1[C@H]1c2n[nH]c(=O)c3cc(F)cc(c23)N[C@@H]1c1ccc(F)cc1 + CNC(C)C(=O)NC1CN(S(=O)(=O)c2cccc(S(=O)(=O)N3CCC4CCC(C(=O)NC(c5ccccc5)c5ccccc5)N4C(=O)C(NC(=O)C(C)NC)C3)c2)CCC2CCC(C(=O)NC(c3ccccc3)c3ccccc3)N2C1=O
pIC50 [1]: < 7.00 | pIC50 [2]: < 7.00 | pIC50 [3]: < 7.00 | pIC50 [4]: < 7.00 | pIC50 [5]: < 7.00 | viability, T/C (second compound 0.01 µM, first compound 0.000316 µM): 78.9% | viability, T/C (second compound 0.01 µM, first compound 0.001 µM): 91.9% | viability, T/C (second compound 0.01 µM, first compound 0.00316 µM): 95.9% | viability, T/C (second compound 0.01 µM, first compound 0.01 µM): 101% | viability, T/C (second compound 0.01 µM, first compound 0.0316 µM): 89.3% | viability, T/C (second compound 0.01 µM, first compound 0.1 µM): 95.2% | viability, T/C (second compound 0.0316 µM, first compound 0.000316 µM): 103% | viability, T/C (second compound 0.0316 µM, first compound 0.001 µM): 98.5% | viability, T/C (second compound 0.0316 µM, first compound 0.00316 µM): 94.8% | viability, T/C (second compound 0.0316 µM, first compound 0.01 µM): 104% | viability, T/C (second compound 0.0316 µM, first compound 0.0316 µM): 104% | viability, T/C (second compound 0.0316 µM, first compound 0.1 µM): 92.4% | viability, T/C (second compound 0.1 µM, first compound 0.000316 µM): 95.3% | viability, T/C (second compound 0.1 µM, first compound 0.001 µM): 97.1% | viability, T/C (second compound 0.1 µM, first compound 0.00316 µM): 101% | viability, T/C (second compound 0.1 µM, first compound 0.01 µM): 100% | viability, T/C (second compound 0.1 µM, first compound 0.0316 µM): 96% | viability, T/C (second compound 0.1 µM, first compound 0.1 µM): 89% | viability, T/C (second compound 0.316 µM, first compound 0.000316 µM): 94.2% | viability, T/C (second compound 0.316 µM, first compound 0.001 µM): 97.4% | viability, T/C (second compound 0.316 µM, first compound 0.00316 µM): 94.8% | viability, T/C (second compound 0.316 µM, first compound 0.01 µM): 95.3% | viability, T/C (second compound 0.316 µM, first compound 0.0316 µM): 97.8% | viability, T/C (second compound 0.316 µM, first compound 0.1 µM): 90.7% | viability, T/C (second compound 1 µM, first compound 0.000316 µM): 85% | viability, T/C (second compound 1 µM, first compound 0.001 µM): 98.5% | viability, T/C (second compound 1 µM, first compound 0.00316 µM): 93.3% | viability, T/C (second compound 1 µM, first compound 0.01 µM): 83.8% | viability, T/C (second compound 1 µM, first compound 0.0316 µM): 107% | viability, T/C (second compound 1 µM, first compound 0.1 µM): 85.5%

Cc1nc(N2CCC3(CC2)COC(C)C3N)c(CO)nc1Sc1ccnc(N)c1Cl (stereo not drawn) + CCN1C(C(=O)NC23CCC(C(=O)O)(CC2)CC3)C(c2cccc(Cl)c2F)C2(C(=O)Nc3cc(Cl)ccc32)C12CCCCC2
pIC50 (curve of first compound, second compound 0.03 µM): < 5.52 | pIC50 (curve of first compound, second compound 0.0949 µM): < 5.52 | pIC50 (curve of first compound, second compound 0.3 µM): < 5.52 | pIC50 (curve of first compound, second compound 0.949 µM): < 5.52 | pIC50 (curve of first compound, second compound 3 µM): < 5.52 | viability, T/C (second compound 0.03 µM, first compound 0.00949 µM): 87.3% | viability, T/C (second compound 0.03 µM, first compound 0.03 µM): 101% | viability, T/C (second compound 0.03 µM, first compound 0.0949 µM): 153% | viability, T/C (second compound 0.03 µM, first compound 0.3 µM): 152% | viability, T/C (second compound 0.03 µM, first compound 0.949 µM): 126% | viability, T/C (second compound 0.03 µM, first compound 3 µM): 109% | viability, T/C (second compound 0.0949 µM, first compound 0.00949 µM): 80.7% | viability, T/C (second compound 0.0949 µM, first compound 0.03 µM): 99.1% | viability, T/C (second compound 0.0949 µM, first compound 0.0949 µM): 165% | viability, T/C (second compound 0.0949 µM, first compound 0.3 µM): 178% | viability, T/C (second compound 0.0949 µM, first compound 0.949 µM): 121% | viability, T/C (second compound 0.0949 µM, first compound 3 µM): 114% | viability, T/C (second compound 0.3 µM, first compound 0.00949 µM): 112% | viability, T/C (second compound 0.3 µM, first compound 0.03 µM): 109% | viability, T/C (second compound 0.3 µM, first compound 0.0949 µM): 158% | viability, T/C (second compound 0.3 µM, first compound 0.3 µM): 171% | viability, T/C (second compound 0.3 µM, first compound 0.949 µM): 141% | viability, T/C (second compound 0.3 µM, first compound 3 µM): 103% | viability, T/C (second compound 0.949 µM, first compound 0.00949 µM): 90.8% | viability, T/C (second compound 0.949 µM, first compound 0.03 µM): 105% | viability, T/C (second compound 0.949 µM, first compound 0.0949 µM): 134% | viability, T/C (second compound 0.949 µM, first compound 0.3 µM): 184% | viability, T/C (second compound 0.949 µM, first compound 0.949 µM): 134% | viability, T/C (second compound 0.949 µM, first compound 3 µM): 95.2% | viability, T/C (second compound 3 µM, first compound 0.00949 µM): 109% | viability, T/C (second compound 3 µM, first compound 0.03 µM): 127% | viability, T/C (second compound 3 µM, first compound 0.0949 µM): 175% | viability, T/C (second compound 3 µM, first compound 0.3 µM): 166% | viability, T/C (second compound 3 µM, first compound 0.949 µM): 122% | viability, T/C (second compound 3 µM, first compound 3 µM): 105%

CCN1C(C(=O)NC23CCC(C(=O)O)(CC2)CC3)C(c2cccc(Cl)c2F)C2(C(=O)Nc3cc(Cl)ccc32)C12CCCCC2 (stereo not drawn) + CNC(C)C(=O)NC1CN(S(=O)(=O)c2cccc(S(=O)(=O)N3CCC4CCC(C(=O)NC(c5ccccc5)c5ccccc5)N4C(=O)C(NC(=O)C(C)NC)C3)c2)CCC2CCC(C(=O)NC(c3ccccc3)c3ccccc3)N2C1=O
pIC50 [1]: < 5.52 | pIC50 [2]: < 5.52 | pIC50 [3]: < 5.52 | pIC50 [4]: < 5.52 | pIC50 [5]: < 5.52 | viability, T/C (second compound 0.01 µM, first compound 0.00949 µM): 91% | viability, T/C (second compound 0.01 µM, first compound 0.03 µM): 108% | viability, T/C (second compound 0.01 µM, first compound 0.0949 µM): 117% | viability, T/C (second compound 0.01 µM, first compound 0.3 µM): 109% | viability, T/C (second compound 0.01 µM, first compound 0.949 µM): 110% | viability, T/C (second compound 0.01 µM, first compound 3 µM): 138% | viability, T/C (second compound 0.0316 µM, first compound 0.00949 µM): 109% | viability, T/C (second compound 0.0316 µM, first compound 0.03 µM): 118% | viability, T/C (second compound 0.0316 µM, first compound 0.0949 µM): 104% | viability, T/C (second compound 0.0316 µM, first compound 0.3 µM): 112% | viability, T/C (second compound 0.0316 µM, first compound 0.949 µM): 105% | viability, T/C (second compound 0.0316 µM, first compound 3 µM): 138% | viability, T/C (second compound 0.1 µM, first compound 0.00949 µM): 130% | viability, T/C (second compound 0.1 µM, first compound 0.03 µM): 117% | viability, T/C (second compound 0.1 µM, first compound 0.0949 µM): 104% | viability, T/C (second compound 0.1 µM, first compound 0.3 µM): 111% | viability, T/C (second compound 0.1 µM, first compound 0.949 µM): 117% | viability, T/C (second compound 0.1 µM, first compound 3 µM): 132% | viability, T/C (second compound 0.316 µM, first compound 0.00949 µM): 110% | viability, T/C (second compound 0.316 µM, first compound 0.03 µM): 120% | viability, T/C (second compound 0.316 µM, first compound 0.0949 µM): 91.2% | viability, T/C (second compound 0.316 µM, first compound 0.3 µM): 123% | viability, T/C (second compound 0.316 µM, first compound 0.949 µM): 99% | viability, T/C (second compound 0.316 µM, first compound 3 µM): 132% | viability, T/C (second compound 1 µM, first compound 0.00949 µM): 102% | viability, T/C (second compound 1 µM, first compound 0.03 µM): 110% | viability, T/C (second compound 1 µM, first compound 0.0949 µM): 112% | viability, T/C (second compound 1 µM, first compound 0.3 µM): 101% | viability, T/C (second compound 1 µM, first compound 0.949 µM): 121% | viability, T/C (second compound 1 µM, first compound 3 µM): 132%

CCN1C(C(=O)NC23CCC(C(=O)O)(CC2)CC3)C(c2cccc(Cl)c2F)C2(C(=O)Nc3cc(Cl)ccc32)C12CCCCC2 (stereo not drawn)
viability, T/C (compound 0.00949 µM): 76.5% and 112% | pIC50 (compound alone, run of 09/27/2022): < 5.52 | pIC50 (curve of compound): < 5.52
